According to patent publication US9447156B2, “Methods and compositions for inhibiting neddylation of proteins” (St. Jude Children's Research Hospital, priority 2011, dated 2016):
Blank lines part the entries; values can stand above or below the molecule they belong to.

How the values were obtained:
hDcn4^P = target: T1, hDcn4^P (Homo sapiens, UniProt Q92564); experiment: ITC binding of peptides to hDcn4^P; details: Table 29, peptides with amidated carboxy-terminus
T1 sequence (Q92564 102-292): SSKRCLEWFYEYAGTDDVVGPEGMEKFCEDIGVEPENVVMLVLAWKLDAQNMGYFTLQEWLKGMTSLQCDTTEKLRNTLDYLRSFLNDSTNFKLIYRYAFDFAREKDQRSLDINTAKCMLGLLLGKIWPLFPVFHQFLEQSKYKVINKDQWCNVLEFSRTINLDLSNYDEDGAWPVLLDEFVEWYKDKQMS
Procedure: (§1) Protein samples were buffer matched by desalting over a NAP-5 column (GE Healthcare) into 50 mM Hepes, 125 mM NaCl, 1 mM BME, pH 7.0 (ITC buffer). Peptides were dissolved by weight to a final concentration of 10 mM in ITC buffer and diluted further in ITC buffer as required for the experiments. Measurements were performed using a MicroCal ITC200. hDcn1^P or yDcn1^P were placed into the sample cell at a final concentration of 400 μM at 18° C. The peptide ligands (4 mM) were constantly injected (1.5 μl). The interval time between each injection was 3 minutes and the duration of each injection was 3 seconds. For titrations involving hE1 and yE1, proteins were placed into the sample cell at a final concentration of 25 μM at 22° C. Peptide ligands (250 μM) were constantly injected (2.5 μl). The interval time between each injection was three minutes and the duration of each injection was 5 seconds. For hCul1^ctd-Rbx1:hDcn1^P binding, proteins were buffer matched by desalting over a NAP-5 column in 25 mM Tris, 0.1 M NaCl, 1 mM BME, pH 7.6. hCul1^ctd-Rbx1 was placed into the sample cell at a final concentration of 55 μM at 22° C. hDcn1^P (550 μM) was constantly injected (2.5 μl). The interval time between each injection was 3 minutes and the duration of each injection was 5 seconds. Obtained spectra were evaluated using Origin (V 7.0) to determine heats of binding and Kd values. […]

hDcn2^P = target: T2, hDcn2^P (Homo sapiens, UniProt Q6PH85); experiment: ITC binding of peptides to hDcn2^P; details: Table 29, peptides with amidated carboxy-terminus
T2 construct: human Dcn1 family members 1-5 (also called DCUND1-DCUND5)
Procedure: (§2) Protein samples were buffer matched by desalting over a NAP-5 column (GE Healthcare) into 50 mM Hepes, 125 mM NaCl, 1 mM BME, pH 7.0 (ITC buffer). Peptides were dissolved by weight to a final concentration of 10 mM in ITC buffer and diluted further in ITC buffer as required for the experiments. Measurements were performed using a MicroCal ITC200. hDcn1^P or yDcn1^P were placed into the sample cell at a final concentration of 400 μM at 18° C. The peptide ligands (4 mM) were constantly injected (1.5 μl). The interval time between each injection was 3 minutes and the duration of each injection was 3 seconds. For titrations involving hE1 and yE1, proteins were placed into the sample cell at a final concentration of 25 μM at 22° C. Peptide ligands (250 μM) were constantly injected (2.5 μl). The interval time between each injection was three minutes and the duration of each injection was 5 seconds. For hCul1^ctd-Rbx1:hDcn1^P binding, proteins were buffer matched by desalting over a NAP-5 column in 25 mM Tris, 0.1 M NaCl, 1 mM BME, pH 7.6. hCul1^ctd-Rbx1 was placed into the sample cell at a final concentration of 55 μM at 22° C. hDcn1^P (550 μM) was constantly injected (2.5 μl). The interval time between each injection was 3 minutes and the duration of each injection was 5 seconds. Obtained spectra were evaluated using Origin (V 7.0) to determine heats of binding and Kd values.
(§3) The affinity of various peptides for hDcn1^P, hDcn2^P, hDcn3^P, hDcn4^P, and hDcn5^P was tested using isothermal titration calorimetry as described in Example 1 and is provided in Table 29.

hDcn5^P = target: T3, hDcn5^P (Homo sapiens, UniProt Q9BTE7); experiment: ITC binding of peptides to hDcn5^P; details: Table 29, peptides with amidated carboxy-terminus
T3 construct: human Dcn1 family members 1-5 (also called DCUND1-DCUND5)
T3 sequence (Q9BTE7 47-237): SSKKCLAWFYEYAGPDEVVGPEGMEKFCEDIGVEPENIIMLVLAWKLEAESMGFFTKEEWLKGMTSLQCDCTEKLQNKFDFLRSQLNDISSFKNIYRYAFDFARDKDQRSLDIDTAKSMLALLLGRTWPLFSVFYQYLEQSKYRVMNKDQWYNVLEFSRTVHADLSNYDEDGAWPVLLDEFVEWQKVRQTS
Procedure: as §1

hDcn1^P = target: T4, hDcn1^P (Homo sapiens, UniProt Q96GG9); experiment: ITC binding of Ubc12/Ube2f peptides to hDcn1^P; details: Table 29, peptides with amidated carboxy-terminus, read-out: Binding Kd for hDcn1^P
T4 construct: hDcn1^P corresponds to residues 62 to the C-terminal residue 259 of hDcn1; GST (cleaved yes); made in house; host or cells: E. coli BL21(DE3)Gold
Procedure: as §2, §3

hCul1^ctd-hRbx1 = experiment: ITC hDcn1^P binding to hCul1^ctd-hRbx1; details: human versus yeast Kd
Procedure: as §2

yCul1^C+-yRbx1 = details: yeast counterparts; read-out: Kd yCul1^C+-yRbx1:yDcn1^P; cited from earlier work
yCul1^C+-yRbx1, sequence (Q12018 427-815 limits assumed): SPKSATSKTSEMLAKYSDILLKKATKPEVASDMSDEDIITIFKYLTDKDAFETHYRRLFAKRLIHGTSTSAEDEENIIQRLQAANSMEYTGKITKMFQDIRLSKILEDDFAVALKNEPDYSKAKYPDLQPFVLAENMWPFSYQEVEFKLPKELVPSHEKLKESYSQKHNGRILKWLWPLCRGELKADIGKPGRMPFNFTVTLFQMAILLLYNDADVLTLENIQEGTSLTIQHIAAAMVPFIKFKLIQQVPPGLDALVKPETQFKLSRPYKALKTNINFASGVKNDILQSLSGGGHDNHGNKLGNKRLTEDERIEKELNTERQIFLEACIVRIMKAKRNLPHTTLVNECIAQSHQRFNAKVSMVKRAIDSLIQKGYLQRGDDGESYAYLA
yCul1^C+-yRbx1, sequence (Q08273 32-121 limits assumed, further chain): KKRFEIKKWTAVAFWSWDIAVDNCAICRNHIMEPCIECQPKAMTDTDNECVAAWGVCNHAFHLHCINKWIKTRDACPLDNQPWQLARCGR

T4 sequence (Q96GG9 62-259): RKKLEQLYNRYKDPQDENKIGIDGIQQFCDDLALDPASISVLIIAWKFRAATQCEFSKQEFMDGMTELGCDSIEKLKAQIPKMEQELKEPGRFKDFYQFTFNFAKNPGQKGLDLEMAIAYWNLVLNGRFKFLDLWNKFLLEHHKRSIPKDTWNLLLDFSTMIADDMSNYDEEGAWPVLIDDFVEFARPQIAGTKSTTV
T2 sequence (Q6PH85 62-259): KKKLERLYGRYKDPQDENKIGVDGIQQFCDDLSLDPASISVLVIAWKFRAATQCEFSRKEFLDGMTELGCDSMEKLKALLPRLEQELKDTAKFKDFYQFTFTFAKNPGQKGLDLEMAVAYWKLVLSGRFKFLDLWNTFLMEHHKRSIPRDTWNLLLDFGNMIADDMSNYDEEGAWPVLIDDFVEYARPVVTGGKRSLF

Kd (hDcn4^P): > 40 µM
Kd (hDcn2^P): > 400 µM
Kd (hDcn5^P): > 30 µM
Kd (hDcn1^P): > 500 µM
Molecule: Ac-MLTLASKLKRDDGLKGSRTAATASD-NH2 [hUbe2f^Ac1−25]

Kd of human proteins relative to yeast counterparts (fold worse) (hCul1^ctd-hRbx1): approximately 30 fold
Molecule: hDcn1^P: residues 62 to 259 of hDcn1 (SCCRO, DCUN1D1), the potentiating neddylation domain

B1: yDcn1^P: PONY domain of S. cerevisiae Dcn1 (protein)
chain: VYPKELTQVFEHYINNNLFDIDSLVKFIEELGYNLEDLATLCLAHLLGYKKLEEPLKREDFLSTWFMQGCSTISDMQECIKTLDVKLHEDLQYFTQIYNYAFNLILDPNRKDIDTDEGIQYWKLFFQPEYPVRMEPDLLEAWFRFLRDEGKTTISKDTWRMLLLFFKRYPTIQKIISDYDETAAWPFIIDEFYECLQDQQ
Kd (yCul1^C+-yRbx1): 0.028 µM
